We go through 31 compounds from ChEMBL document CHEMBL2417443, “Efficient synthesis and antiproliferative activity of novel thioether-substituted flavonoids” (Eur J Med Chem, 2013).

SMILES strings stand for the structures.

In general, IC50 refers to the concentration needed to halve the response being measured.

Assay [1] deals with MCF7. Put plainly: Cytotoxicity against human MCF7 cells after 72 hrs by MTT assay. The class given is functional, cell-based. Conditions: MCF7, 72 h. For orientation: Tetrazolium dyes change colour on reduction, which living cells bring about.
Assay [2] in a line: Cytotoxicity against human MDA-MB-435S cells after 72 hrs by MTT assay. The class given is functional, cell-based.
Assay [3] can be described thus: Ratio of 5-fluorouracil IC50 to compound IC50 for human MDA-MB-435S cells. In kind it is functional.
The subject of assay [4] is HEp-2. Put plainly: Ratio of 5-fluorouracil IC50 to compound IC50 for human Hep2 cells. The class given is functional.
Assay [5] can be described thus: Ratio of 5-fluorouracil IC50 to compound IC50 for human LM7 cells. The class given is functional.
For assay [6], the system named is SW480. Nature of the assay: Ratio of 5-fluorouracil IC50 to compound IC50 for human SW480 cells. The class given is functional.
The subject of assay [7] is SW480. Put plainly: Cytotoxicity against human SW480 cells after 72 hrs by MTT assay. The class given is functional, cell-based. Conditions: SW480, 72 h.
The test system of assay [8] is HeLa. Nature of the assay: Ratio of 5-fluorouracil IC50 to compound IC50 for human HeLa cells. The class given is functional.
The subject of assay [9] is MCF7. Nature of the assay: Ratio of 5-fluorouracil IC50 to compound IC50 for human MCF7 cells. In kind it is functional.
Assay [10] can be described thus: Cytotoxicity against human LM7 cells after 72 hrs by MTT assay. The class given is functional, cell-based. Conditions: LM7, 72 h.
Assay [11] relates to HEp-2. Put plainly: Cytotoxicity against human Hep2 cells after 72 hrs by MTT assay. In kind it is functional, cell-based. The conditions noted are these: HEp-2, 72 h.
The test system of assay [12] is HeLa. Nature of the assay: Cytotoxicity against human HeLa cells after 72 hrs by MTT assay. In kind it is functional, cell-based.

Turning to `Cc1nnc(SCc2coc3ccccc3c2=O)o1`, the IC50 in the assay with MCF7 [1] is 4.6 µM; in assay [2], 1.2 µM; with SW480 [7], 0.79 µM; in assay [10], 3.5 µM; in the assay on HEp-2 [11] it was 3.8 µM; in the assay with HeLa [12] it was 1.4 µM. Moreover, the “Ratio IC50” value was found to be 8.3 in [3]; 33.9 with HEp-2 [4]; 6.6 in assay [5]; 2.3 in the assay on SW480 [6]; 0.7 in the assay on HeLa [8]; 0.5 in the assay with MCF7 [9].
In the case of `Cc1nnc(SCc2cc(=O)c3cc(Cl)ccc3o2)o1`, the concentration for half-maximal inhibition (IC50) (in the assay with MCF7 [1]; in assay [2]; in the assay on SW480 [7]; in assay [10]; with HEp-2 [11]; in the assay on HeLa [12]) was greater than 25 µM in each case.
For `O=c1c(CSc2cc(=O)c3ccccc3s2)coc2ccccc12`, the IC50 with MCF7 [1] is 5.4 µM; in assay [2], 1.7 µM; in the assay on SW480 [7], 3.6 µM; in [10] it was 2.8 µM; with HEp-2 [11], 1.4 µM; in the assay with HeLa [12], 2.6 µM. Moreover, the “Ratio IC50” value in [3] is 8.3; with HEp-2 [4], 33.9; in assay [5], 6.6; in the assay with SW480 [6], 2.3; with HeLa [8] it was 0.7; with MCF7 [9], 0.5.
Turning to `COC(=O)Nc1ccc2c(CSc3nnc(CSc4nc(C)cc(C)n4)s3)cc(=O)oc2c1`, the IC50 in the assay on MCF7 [1] worked out at 9.4 µM; in assay [2], 4.6 µM; in the assay with SW480 [7], 3.7 µM; in assay [10], 2.3 µM; in the assay on HEp-2 [11], 2.1 µM; in the assay with HeLa [12], 15.9 µM.
In the case of `Cc1cc(C)n2nc(SCc3nnc(SCc4cc(=O)c5ccccc5o4)s3)nc2n1`, the IC50 (in the assay on MCF7 [1]; in assay [2]; with SW480 [7]; in assay [10]; in the assay on HEp-2 [11]; with HeLa [12]) was greater than 25 µM in each case.
Turning to `Cc1cc(C)nc(SCn2cnc3ccccc3c2=O)n1`, the half-maximal inhibitory concentration (IC50) (in the assay with MCF7 [1]; in assay [2]; in the assay on SW480 [7]; in assay [10]; in the assay with HEp-2 [11]; in the assay on HeLa [12]) was greater than 25 µM each time.
On to `Cc1ccc2oc(CSc3nnc(C)o3)cc(=O)c2c1`, for which the IC50 (in the assay with MCF7 [1]; in [2]; in the assay with SW480 [7]; in assay [10]; in the assay with HEp-2 [11]; with HeLa [12]) was greater than 25 µM in each case.
In the case of `Cc1cc(C)nc(SCc2cc(=O)c3ccccc3o2)n1`, the IC50 (in the assay with MCF7 [1]; in [2]; in the assay on SW480 [7]; in assay [10]; with HEp-2 [11]; in the assay on HeLa [12]) was greater than 25 µM in each case.
With `Cc1cc(C)n2nc(SCc3nnc(SCc4cc(=O)c5ccccc5o4)n3-c3ccccc3)nc2n1`, the IC50 (in the assay on MCF7 [1]; in assay [2]; with SW480 [7]; in assay [10]; in the assay with HEp-2 [11]; in the assay with HeLa [12]) was greater than 25 µM in each case.
In the case of `Cc1ccc2oc(CSc3nnc(C)s3)cc(=O)c2c1`, the IC50 (in the assay on MCF7 [1]; in assay [2]; with SW480 [7]; in assay [10]; with HEp-2 [11]; in the assay with HeLa [12]) was greater than 25 µM throughout.
`Cc1cc(C)n2nc(SCc3nnc(SCc4cc(=O)oc5cc(O)cc(C)c45)s3)nc2n1`: the half-inhibitory concentration (IC50) (in the assay on MCF7 [1]; in [2]; in the assay with SW480 [7]; in [10]; in the assay with HEp-2 [11]; with HeLa [12]) was greater than 25 µM each time.
For the compound `Cc1nnc(Sc2coc3ccccc3c2=O)s1`, the IC50 (in the assay on MCF7 [1]; in assay [2]; in the assay on SW480 [7]; in [10]; in the assay on HEp-2 [11]; with HeLa [12]) was greater than 50 µM in each case.
`Cc1cc(O)cc2oc(=O)cc(CSc3nc4ccccc4o3)c12`: the IC50 (in the assay with MCF7 [1]; in assay [2]; in the assay with SW480 [7]; in [10]; in the assay with HEp-2 [11]; with HeLa [12]) was greater than 25 µM each time.
Turning to `Cc1cc(C)nc(SCc2coc3ccccc3c2=O)n1`, the IC50 in the assay on MCF7 [1] is greater than 25 µM; in assay [2], greater than 25 µM; with SW480 [7], greater than 25 µM; in assay [10], greater than 25 µM; in the assay with HEp-2 [11], 55.1 µM; in the assay on HeLa [12], greater than 25 µM.
As to `Cc1cc(O)cc2oc(=O)cc(CSc3nc4ccccc4s3)c12`, the IC50 (in the assay with MCF7 [1]; in assay [2]; in the assay with SW480 [7]; in assay [10]; in the assay with HEp-2 [11]; with HeLa [12]) was greater than 25 µM in each case.
For the compound `Cc1nnc(SCc2cc(=O)c3ccccc3o2)o1`, the IC50 (with MCF7 [1]; in [2]; in the assay with SW480 [7]; in assay [10]; in the assay with HEp-2 [11]; in the assay on HeLa [12]) was greater than 25 µM throughout.
`Cc1ccc2oc(CSc3nc4ccccc4s3)cc(=O)c2c1`: the IC50 (in the assay on MCF7 [1]; in [2]; in the assay with SW480 [7]; in [10]; with HEp-2 [11]; in the assay with HeLa [12]) was greater than 25 µM each time.
Turning to `O=c1cc(SCn2cnc3ccccc3c2=O)sc2ccccc12`, the IC50 in the assay on MCF7 [1] is 5.3 µM; in assay [2], 4.1 µM; with SW480 [7], 8.5 µM; in assay [10] it was 17 µM; in the assay on HEp-2 [11], 5.9 µM; with HeLa [12], 6.3 µM.
Regarding `Cc1cc(C)n2nc(SCc3nnc(SCc4coc5ccccc5c4=O)n3-c3ccccc3)nc2n1`, the IC50 in the assay with MCF7 [1] is greater than 25 µM; in assay [2], 2.9 µM; in the assay on SW480 [7], 12.4 µM; in assay [10], 16.6 µM; in the assay with HEp-2 [11], 22.1 µM; with HeLa [12], greater than 25 µM.
For `Cc1cc(C)n2nc(SCc3nnc(SCc4cc(=O)c5ccccc5o4)n3N)nc2n1`, the IC50 (in the assay on MCF7 [1]; in [2]; in the assay with SW480 [7]; in [10]; with HEp-2 [11]; in the assay on HeLa [12]) was greater than 25 µM each time.
Regarding `Cc1ccc2oc(CSc3nc4nc(C)cc(C)n4n3)cc(=O)c2c1`, the IC50 (in the assay with MCF7 [1]; in [2]; in the assay on SW480 [7]; in [10]; in the assay with HEp-2 [11]; in the assay with HeLa [12]) was greater than 25 µM throughout.
With `Nc1nnc(SCc2cc(=O)oc3c2ccc2ccccc23)s1`, the IC50 (in the assay with MCF7 [1]; in assay [2]; in the assay with SW480 [7]; in assay [10]; in the assay with HEp-2 [11]; with HeLa [12]) was greater than 25 µM throughout.
For the compound `Cc1ccc2oc(CSc3nnc(N)s3)cc(=O)c2c1`, the IC50 (in the assay with MCF7 [1]; in [2]; in the assay with SW480 [7]; in assay [10]; in the assay with HEp-2 [11]; with HeLa [12]) was greater than 25 µM in each case.
In the case of `Cc1nnc(SCc2coc3ccc(Cl)cc3c2=O)s1`, the IC50 with MCF7 [1] came to 13.4 µM; in assay [2] it was 2.2 µM; in the assay on SW480 [7] it was 3.2 µM; in assay [10], 7.6 µM; in the assay on HEp-2 [11], 4.2 µM; with HeLa [12] it was 9.7 µM.
In the case of `Nc1nnc(SCc2cc(=O)c3ccccc3o2)s1`, the IC50 (in the assay with MCF7 [1]; in assay [2]; in the assay on SW480 [7]; in [10]; in the assay on HEp-2 [11]; with HeLa [12]) was greater than 25 µM in each case.
Turning to `Cc1cc(C)n2nc(SCc3nnc(SCc4cc(=O)oc5c4ccc4ccccc45)s3)nc2n1`, the IC50 (with MCF7 [1]; in assay [2]; in the assay on SW480 [7]; in assay [10]; in the assay on HEp-2 [11]; in the assay with HeLa [12]) was greater than 25 µM each time.
`O=c1cc(CSc2nc3ccccc3s2)oc2ccc(Cl)cc12`: the IC50 (in the assay with MCF7 [1]; in assay [2]; in the assay with SW480 [7]; in assay [10]; in the assay on HEp-2 [11]; in the assay on HeLa [12]) was greater than 25 µM each time.
On to `Cc1cc(C)n2nc(SCc3nnc(SCc4cc(=O)c5ccccc5o4)o3)nc2n1`, for which the IC50 (with MCF7 [1]; in assay [2]; with SW480 [7]; in [10]; in the assay with HEp-2 [11]; with HeLa [12]) was greater than 25 µM throughout.
Turning to `Cc1cc(C)n2nc(SCn3cnc4ccccc4c3=O)nc2n1`, the IC50 (with MCF7 [1]; in [2]; in the assay on SW480 [7]; in [10]; in the assay with HEp-2 [11]; in the assay with HeLa [12]) was greater than 25 µM throughout.
Regarding `O=c1c2ccccc2ncn1CSc1nc2ccccc2o1`, the concentration for half-maximal inhibition (IC50) (in the assay on MCF7 [1]; in assay [2]; with SW480 [7]; in [10]; in the assay with HEp-2 [11]; with HeLa [12]) was greater than 25 µM in each case.
On to `Cc1nnc(SCc2cc(=O)c3ccccc3o2)s1`, for which the IC50 (in the assay with MCF7 [1]; in assay [2]; in the assay with SW480 [7]; in assay [10]; with HEp-2 [11]; with HeLa [12]) was greater than 25 µM each time.
